From patent US20040058947A1, “Composition for the prevention or treatment of learning disorders in children suffering from attention deficit/hyperactive disorder” (priority 2001, published 2004)

Legend:
[1] = tested on: cortical neurons isolated from mouse foetuses; test: Effect on glutamate-induced cortical neuronal toxicity; type: cell-based; conditions: monosodium glutamate 1 nmol·L^−1; L-carnitine/acetyl L-carnitine 5 nmol·L^−1, huperzine A 10 nmol·L^−1, added half an hour before glutamate; glutamate alone 20%
Description: As is known , persistent stimulation of glutamate receptors induces a neurotoxic effect leading to the death of neuronal cells: this is one of the mechanisms regarding as being responsible for the pathogenesis of Alzheimer's disease. The aim of these tests was to observe whether preincubation of cortical neuronal cells with L-carnitine+acetyl L-carnitine carnitine alone or in combination with huperzine A may lead to a reduction of glutamate-induced toxicity and to greater survival of neuronal cells. In these tests, cortical neurons isolated from mouse foetuses were used, according to the method described by Lin [Lin L., J. Nanjing Univ. (Natural Science Edition) 31:514, 1995—Lin L., Acta Pharmacol. Sinica, 17:221, 1996]. After isolating the cells, they were suspended on plates with a density of 6.4×10^8 cells/m^2 surface. To prevent proliferation of non-neuronal cells, […]. […]
The solutions of L-carnitine/acetyl L-carnitine or huperzine A were added to the Locke solution half an hour before monosodium glutamate. […] according to the procedure disclosed by Green (Green L. M., J. Immunol. Methods, 70:257, 1984).

[2] = tested on: glutamate-induced spontaneous motility in mice; test: Glutamate excitability tests (hypermotility after intracerebral glutamate); type: in vivo; conditions: treatment one hour prior, huperzine A 0.05 mg/kg, L-carnitine 200 mg/kg + acetyl L-carnitine 50 mg/kg
Source text: Excitatory amino acids such as glutamate, if administered by intracerebral injection, produce a series of behavioural effects, the most evident of which is hypermotility.
To evaluate the effect of huperzine A and L-carnitine/acetyl L-carnitine and of a combination of these, mice received intracerebral injections of increasing doses of glutamate according to the method described by Lama (Lama E., Acta Pharmacol. Sinica, 9:252, 1988). The increase in spontaneous motility of these animals placed in a box with transparent walls was then evaluated by means of a photoelectric cell which recorded the number of passes for a period of five minutes. The motility test was conduced both in control animals and in animals treated one hour prior to injection of glutamate with huperzine A and with L-carnitine/acetyl L- carnitine and with a combination of these compounds. The results of these tests (see Table 2) indicate that treatment with huperzine A reduces the increase in motility induced by glutamate in mice, but that the greastest reduction is that obtained by administration of the combination of huperzine A and L-carnitine/acetyl L-carnitine.

`C/C=C1\[C@H]2C=C(C)C[C@]1(N)c1ccc(=O)[nH]c1C2` [huperzine A] was tested, and the “survival rate of neuronal cells” value [1] was 30%, the “N. passes in 5 min observation” value ([2]; Glutamate 1 ng/mouse intracerebral, glutamate control 241 ± 35) was 226 ± 24 and the “N. passes in 5 min observation” value ([2]; Glutamate 5 ng/mouse intracerebral, glutamate control 364 ± 39) was 296 ± 16.
